Reference: patent US12428420B2, “Tricyclic heterocycles as FGFR inhibitors” (Incyte Corporation, priority 2021, dated 2025)

Columns and labels:
[1] = target: wild-type un-phosphorylated FGFR3 protein (Homo sapiens, UniProt P22607); assay: FGFR Enzymatic Assay (FRET peptide phosphorylation); assay type: biochemical; conditions: pre-incubated for 4 hours
Method: The inhibitor potency of the exemplified compounds was determined in an enzyme discontinuous assay that measures peptide phosphorylation using FRET measurements to detect product formation. Inhibitors were serially diluted in DMSO and a volume of 0.2 μL was transferred to the wells of a 384-well plate. A 5 μL/well volume of enzyme isoforms of FGFR (-1, -2, -3 wild-type and mutant isoforms, -4) including phosphorylated and un-phosphorylated proteins diluted in assay buffer (50 mM HEPES, 10 mM MgCl2, 1 mM EGTA, 0.01% Tween-20, 5 mM DTT, pH 7.5) was added to the plate and pre-incubated with inhibitor for 5 to 15 minutes at ambient temperature. Appropriate controls (enzyme blank and enzyme with no inhibitor) were included on the plate. The reaction was initiated by the addition of a 5 μL/well volume containing both biotinylated [sequence] peptide substrate (SEQ ID NO: 1) and ATP in assay buffer. The 10 μL/well reaction concentration of the peptide substrate was 500 nM whereas the ATP concentration was maintained near or below the ATP Km. The ATP Km values were pre-determined in a separate series of experiments. The reaction plate was incubated at 25° C. for 1 hr and the reactions were ended with the addition of 5 μL/well of quench solution (50 mM Tris, 150 mM NaCl, 0.5 mg/mL BSA, pH 7.8; 45 mM EDTA, 600 nM staurosporin, with Perkin Elmer Lance Reagents at 3.75 nM Eu-antibody PY20 and 180 nM APC-Streptavidin). The plate was allowed to equilibrate for ˜10 minutes at ambient temperature before scanning on a PheraStar plate reader (BMG Labtech) instrument.
Either GraphPad prism or XLfit was used to analyze the data. The IC50 values were derived by fitting the data to a four parameter logistic equation producing a sigmoidal dose-response curve with a variable Hill coefficient. Prism equation: Y=Bottom+(Top−Bottom)/(1+10^((Log IC50−X)*Hill slope)); XLfit equation: Y=(A+((B−A)/(1+((X/C)^D)))) where X is the logarithm of inhibitor concentration and Y is the response.

RT-112/84 cell line = assay: Luminescent Viability Assay (CellTiter-Glo); assay type: cell-based; conditions: Homo sapiens, RT112/84, 72 h, RT-112/84 cell line (bladder, FGFR3-TACC3); 3 days
Method: RT112 cells (cell lines and genetic profiles further detailed in Table 2) were purchased from ATCC (Manassas, VA) and maintained in RPMI, 10% FBS (Gibco/Life Technologies). To measure the effect of test compounds on the viability of cells, the cells were plated with RPMI 10% FBS (5×10^3 cells/well/in 50 μL) into black 96-well Greiner polystyrene in the presence or absence of 50 μL of a concentration range of test compounds. After 3 days, 100 μL of CellTiter-Glo Reagent (Promega) was added. Luminescence was read with a TopCount (PerkinElmer). IC50 determination was performed by fitting the curve of percent inhibition versus the log of the inhibitor concentration using the GraphPad Prism 5.0 software.

Sequence of wild-type un-phosphorylated FGFR3 protein (P22607 23-806): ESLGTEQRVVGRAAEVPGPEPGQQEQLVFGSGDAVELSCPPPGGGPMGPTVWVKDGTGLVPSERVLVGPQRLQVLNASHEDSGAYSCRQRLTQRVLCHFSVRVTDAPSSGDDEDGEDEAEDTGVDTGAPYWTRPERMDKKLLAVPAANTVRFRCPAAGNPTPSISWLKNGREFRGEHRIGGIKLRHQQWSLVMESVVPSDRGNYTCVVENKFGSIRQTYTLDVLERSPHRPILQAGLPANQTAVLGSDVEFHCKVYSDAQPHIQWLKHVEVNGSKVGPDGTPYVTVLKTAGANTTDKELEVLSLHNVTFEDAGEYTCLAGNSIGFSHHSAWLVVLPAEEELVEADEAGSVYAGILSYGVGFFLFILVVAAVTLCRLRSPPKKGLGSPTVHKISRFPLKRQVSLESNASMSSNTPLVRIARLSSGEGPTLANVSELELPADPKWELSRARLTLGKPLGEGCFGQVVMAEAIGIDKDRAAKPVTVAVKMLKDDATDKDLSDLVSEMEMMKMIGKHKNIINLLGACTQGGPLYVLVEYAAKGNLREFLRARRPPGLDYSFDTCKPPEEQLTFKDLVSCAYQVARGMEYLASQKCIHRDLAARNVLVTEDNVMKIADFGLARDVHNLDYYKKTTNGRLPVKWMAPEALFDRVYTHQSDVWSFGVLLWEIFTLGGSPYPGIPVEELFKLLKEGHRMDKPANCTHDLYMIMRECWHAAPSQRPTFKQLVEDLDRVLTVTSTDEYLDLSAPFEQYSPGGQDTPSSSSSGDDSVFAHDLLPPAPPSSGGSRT

Structure (SMILES)	IC50 [1] [nM]	IC50 (RT-112/84 cell line) [nM]
COCC(=O)N1CC(Cn2cc(-c3cnc4ccn5c(CO)c(-c6c(Cl)cccc6Cl)nc5c4c3)cn2)C1 [Example 27, 1-(3-((4-(2-(2,6-Dichlorophenyl)-3-(hydroxymethyl)imidazo[2,1-f][1,6]naphthyridin-9-yl)-1H-pyrazol-1-yl)methyl)azetidin-1-yl)-2-methoxyethan-1-one]	1 to 5	10 to 50
CS(=O)(=O)CCn1cc(-c2cnc3ccn4c(C(F)F)c(-c5c(Cl)cccc5Cl)nc4c3c2)cn1 [Example 28, 2-(2,6-Dichlorophenyl)-3-(difluoromethyl)-9-(1-(2-(methylsulfonyl)ethyl)-1H-pyrazol-4-yl)imidazo[2,1-f][1,6]naphthyridine]	< 1	< 10
N#CCn1cc(-c2cnc3ccn4c(C(F)F)c(-c5c(Cl)cccc5Cl)nc4c3c2)cn1 [Example 29, 2-(4-(2-(2,6-Dichlorophenyl)-3-(difluoromethyl)imidazo[2,1-f][1,6]naphthyridin-9-yl)-1H-pyrazol-1-yl)acetonitrile]	< 1	< 10
FC(F)c1c(-c2c(Cl)cccc2Cl)nc2c3cc(-c4cnn(C5CCOCC5)c4)cnc3ccn12 [Example 30, 2-(2,6-Dichlorophenyl)-3-(difluoromethyl)-9-(1-(tetrahydro-2H-pyran-4-yl)-1H-pyrazol-4-yl)imidazo[2,1-J][1,6]naphthyridine]	< 1	< 10
OCCn1cc(-c2cnc3ccn4c(C(F)F)c(-c5c(Cl)cccc5Cl)nc4c3c2)cn1 [Example 31, 2-(4-(2-(2,6-Dichlorophenyl)-3-(difluoromethyl)imidazo[2,1-f][1,6]naphthyridin-9-yl)-1H-pyrazol-1-yl)ethan-1-ol]	< 1	< 10
CC(C#N)n1cc(-c2cnc3ccn4c(C(F)F)c(-c5c(Cl)cccc5Cl)nc4c3c2)cn1 (stereo not drawn) [Example 32, 2-(4-(2-(2,6-Dichlorophenyl)-3-(difluoromethyl)imidazo[2,1-f][1,6]naphthyridin-9-yl)-1H-pyrazol-1-yl)propanenitrile]	< 1	< 10
CC(C)(C(N)=O)n1cc(-c2cnc3ccn4c(C(F)F)c(-c5c(Cl)cccc5Cl)nc4c3c2)cn1 [Example 33, 2-(4-(2-(2,6-Dichlorophenyl)-3-(difluoromethyl)imidazo[2,1-f][1,6]naphthyridin-9-yl)-1H-pyrazol-1-yl)-2-methylpropanamide]	< 1	< 10
CN1CCC(n2cc(-c3cnc4ccn5c(CCO)c(-c6c(Cl)cccc6Cl)nc5c4c3)cn2)CC1 [Example 34, 2-(2-(2,6-Dichlorophenyl)-9-(1-(1-methylpiperidin-4-yl)-1H-pyrazol-4-yl)imidazo[2,1-f][1,6]naphthyridin-3-yl)ethan-1-ol]	1 to 5	10 to 50
Nc1c(-c2c(Cl)cccc2Cl)nc2c3cc(-c4cnn(C5CCOCC5)c4)cnc3ccn12 [Example 35, 2-(2,6-Dichlorophenyl)-9-(1-(tetrahydro-2H-pyran-4-yl)-1H-pyrazol-4-yl)imidazo[2,1-f][1,6]naphthyridin-3-amine]	1 to 5	10 to 50
